This note sets out measurements from patent publication US7504403B2, “Substituted heterocyclic compounds and methods of use” (Amgen Inc., priority 2004, dated 2009).

In the test the test system is LPS induced TNF release. As to the kind of experiment: Lipopolysaccharide-Activated THP1 Cell TNF Production Assay. Format: cell-based. The note with it: Homo sapiens, THP-1. Here is the method:
Lipopolysaccharide-Activated THP1 Cell TNF Production Assay
THP1 cells are resuspended in fresh THP1 media (RPMI 1640, 10% heat-inactivated FBS, 1×PGS, 1×NEAA, plus 30 μM βME) at a concentration of 1E6/mL. One hundred microliters of cells per well are plated in a polystyrene 96-well tissue culture. One microgram per mL of bacterial LPS is prepared in THP1 media and is transferred to the wells. Test compounds are dissolved in 100% DMSO and are serially diluted 3 fold in a polypropylene 96-well microtiter plate (drug plate). HI control and LO control wells contain only DMSO. One microliter of test compound from the drug plate followed by 10 μL of LPS are transferred to the cell plate. The treated cells are induced to synthesize and secrete TNF-α at 37° C. for 3 h. Forty microliters of conditioned media are transferred to a 96-well polypropylene plate containing 110 μL of ECL buffer (50 mM Tris-HCl pH 8.0, 100 mM NaCl, 0.05% Tween 20, 0.05% NaN3 and 1%FBS) supplemented with 0.44 nM MAB610 monoclonal Ab (R&D Systems), 0.34 nM ruthenylated AF210NA polyclonal Ab (R&D Systems) and 44 μg/mL sheep anti-mouse M280 Dynabeads (Dynal). After a 2 h incubation at room temperature with shaking, the reaction is read on the ECL M8 Instrument (IGEN Inc.). A low voltage is applied to the ruthenylated TNF-α immune complexes, which in the presence of TPA (the active component in Origlo), results in a cyclical redox reaction generating light at […]. The amount of secreted TNF-α in the presence of compound compared with that in the presence of DMSO vehicle alone (HI control) is calculated using the formula: % control (POC)=(cpd−average LO)/(average HI−average LO)*100. Data (consisting of POC and inhibitor concentration in μM) is fitted to a 4-parameter equation (y=A+((B−A)/(1+((x/C)^D))), where A is the minimum y (POC) value, B is the maximum y (POC), C is the x (cpd concentration) at the point of inflection and D is the slope factor) using a Levenburg-Marquardt non-linear regression algorithm.
Compound `CC(N)Cc1ccc(CC(C)Nc2nccc(N3CCC(=O)N4CC=C(c5ccccc5)N=C43)n2)cc1` (stereo not shown) [Example 64, 1-(2-{2-[4-(2-Amino-propyl)-phenyl]-1-methyl-ethylamino}-pyrimidin-4-yl)-8-phenyl-1,2,3,6-tetrahydro-pyrimido[1,2-a]pyrimidin-4-one] displayed a 50% inhibitory concentration (IC50) of no more than 20 µM.
As to `CC(Cc1cccc(C(C)(C)N)c1)Nc1nccc(N2CCC(=O)N3CC=C(c4ccccc4)N=C32)n1` (stereo not shown) [Example 65, 1-(2-{2-[3-(1-Amino-1-methyl-ethyl)-phenyl]-1-methyl-ethylamino}-pyrimidin-4-yl)-8-phenyl-1,2,3,6-tetrahydro-pyrimido[1,2-a]pyrimidin-4-one], the IC50 is no more than 20 µM.
Next, `CC(Nc1nccc(N2CC(O)Cn3c2nc(-c2ccccc2)cc3=O)n1)c1ccccc1` (stereo not shown) [Example 66, 7-Hydroxy-2-phenyl-9-[2-(1-phenyl-ethylamino)-pyrimidin-4-yl]-6,7,8,9-tetrahydro-pyrimido[1,2-a]pyrimidin-4-one]: no more than 20 µM; `O=c1cc(-c2ccccc2)cc2n1CCCN2c1ccnc(NCCc2ccccc2)n1` [Example 74, 1-(2-Phenethylamino-pyrimidin-4-yl)-8-phenyl-1,2,3,4-tetrahydro-pyrido[1,2-a]pyrimidin-6-one]: no more than 20 µM; `O=c1cc(-c2ccccc2)cc2n1CCCN2c1ccnc(NCCc2ccccc2Cl)n1` [Example 75, 1-{2-[2-(2-Chloro-phenyl)-ethylamino]-pyrimidin-4-yl}-8-phenyl-1,2,3,4-tetrahydro-pyrido[1,2-a]pyrimidin-6-one]: no more than 20 µM.
Next, `O=c1cc(-c2ccccc2)cc2n1CCCN2c1ccnc(NCCc2c(Cl)cccc2Cl)n1` [Example 76, 1-{2-[2-(2,6-Dichloro-phenyl)-ethylamino]-pyrimidin-4-yl}-8-phenyl-1,2,3,4-tetrahydro-pyrido[1,2-a]pyrimidin-6-one]: no more than 20 µM; `O=c1cc(-c2ccccc2)cc2n1CCCN2c1ccnc(NCCc2ccc(Cl)cc2Cl)n1` [Example 77, 1-{2-[2-(2,4-Dichloro-phenyl)-ethylamino]-pyrimidin-4-yl}-8-phenyl-1,2,3,4-tetrahydro-pyrido[1,2-a]pyrimidin-6-one]: no more than 20 µM; `C[C@H](Nc1nccc(N2CCCn3c2cc(-c2ccccc2)cc3=O)n1)c1ccccc1` [Example 78]: no more than 20 µM.
Then `C[C@H](CNc1nccc(N2CCCn3c2cc(-c2ccccc2)cc3=O)n1)c1ccccc1` [Example 79], with no more than 20 µM; and `COc1ccc([C@H](C)Nc2nccc(N3CCCn4c3cc(-c3ccccc3)cc4=O)n2)cc1` [Example 80, 1-{2-[(1S)-(4-Methoxy-phenyl)-ethylamino]-pyrimidin-4-yl}-8-phenyl-1,2,3,4-tetrahydro-pyrido[1,2-a]pyrimidin-6-one], with no more than 20 µM; and `C[C@H](Nc1nccc(N2CCCn3c2cc(-c2ccccc2)cc3=O)n1)c1cccc(Br)c1` [Example 81, 1-{2-(S)-[1-(3-Bromo-phenyl)-ethylamino]-pyrimidin-4-yl}-8-phenyl-1,2,3,4-tetrahydro-pyrido[1,2-a]pyrimidin-6-one], with no more than 20 µM.
For the compound `C[C@H](Nc1nccc(N2CCCn3c2cc(-c2ccccc2)cc3=O)n1)c1cccc(N2CCNCC2)c1` [Example 82, 8-Phenyl-1-{2-(S)-[1-(3-piperazin-1-yl-phenyl) -ethylamino]-pyrimidin-4-yl}-1,2,3,4-tetrahydro-pyrido[1,2-a]pyrimidin-6-one], the half-maximal inhibitory concentration (IC50) is no more than 20 µM.
Consider `CC(Cc1cccc(CO)c1)Nc1nccc(N2CCCn3c2cc(-c2ccccc2)cc3=O)n1` (stereo not shown) [Example 83, 1-{2-[2-(3-Hydroxymethyl-phenyl)-1-methyl-ethylamino]-pyrimidin-4-yl}-8-phenyl-1,2,3,4-tetrahydro-pyrido[1,2-a]pyrimidin-6-one], for which the concentration for half-maximal inhibition (IC50) was no more than 20 µM.

What is called IC50 is the point on the concentration scale where inhibition reaches its midpoint. The low end stands for greater potency, the high end for weaker potency.
